In US7157083B2, “Compositions and methods for treating retroviral infections” (priority 1998, dated 2007):

System: ROJO (low passage HIV-1)
Experiment: Study 2 hyaluronidase chronic overlay testing: RT activity after secondary ROJO infection
Assay type: cell-based
From the text: Percent virus control (% VC) in the following tables is the mean RT activity (cpm) as a percentage of a virus control. Percent cell control (% CC) is the mean XTT absorbance as a percentage of a cell control.
Method A. Peripheral blood monocytes were isolated from normal HIV-1 negative donors by plastic adherence following ficall hypaque purification of the buffy coat PBMCs. For isolation of adherent cells, 3×10^6/ml non-PHA stimulated peripheral blood cells were resuspended in Hanks buffered saline (with calcium and magnesium) supplemented with 10% human AB serum, and 200 μl per well placed in a 96 well lat bottomed microtiter plate. The cells were incubated overnight at 37° C., 5% CO2. Non-adherent cells were removed by washing six time with a Ca^++, Mg^++ containing medium. The adherent cells after the final wash were supplemented with RPMI 1640 supplemented with 15% fetal bovine serum (heat inactivated), 2 mM L-glutamine, 100 U/mL penicillin, 100 μg/mL streptomycin and 10 μg/mL gentamycin, and cultured for 7 days. The cultures were washed one final time before addition of compounds to remove any non-adherent cells. The cultures are carefully monitored for confluency prior to assay.
Reverse transcriptase (RT) activity was measured in cell-free supernatants. Tritiated thymidine triphosphate (NEN) (TTP) was resuspended in distilled H2O at […]. Poly rA and oligo dT were prepared as a stock solution which was kept at −20° C. The RT reaction buffer was prepared fresh on a daily basis and consists of 125 μL 1.0 M EGTA, 125 μL d H2O, 110 μL 10% SDS, 50 μL 1.0 M Tris (pH 7.4), 50 μL 1.0 M DTT, and 40μ1.0 M MgCl2. These three solutions were mixed together in a ratio of 2 parts TTP, 1 part poly rA:oligo dT, and 1 part reaction buffer. Ten microliters of this reaction mixture was placed in a round bottom microtiter plate and 15 μL of virus containing supernatant was added and mixed. The plate was incubated at 37° C. in a water bath with a solid support to prevent submersion of the plate and incubated for 60 minutes. Following reaction, the reaction volume was spotted onto pieces of DE81 paper, washed 5 times for 5 minutes each in a 5% sodium phosphate buffer, 2 times for 1 minute each in distilled water, 2 times for 1 minute each in 70% ethanol, and then dried. Opti-Fluor O was added to each sample and incorporated radioactivity was quantitated utilizing a Wallace 1450 Microbetaplus liquid scintillation counter.
Assay method. Seven day old Rojo chronically infected (and uninfected control) PBMCs are pre-treated with two fold dilutions of HLDA-1 for 48 hours. Treated cells are 2× washed with PBS and overlayed onto seven day old macrophages for 72 hours at which time the PBMCs were washed off and replaced with fresh uninfected pha blast PBMCs in the presence of IL-1 (5.0 ng/mL) and IL-2 (20U/mL). Overlayed cells are incubated for 48 hours 50% of cells transferred to a fresh 96 well plate, and then both the original and transfer plate infected with ROJO at a standard MOI. Samples for reverse transcriptase and toxicity testing were processed on day 7 post secondary infection.

## Hyaluronidase
Table 4, 2.5 units/mL, Rojo chronic PBMCs, Macrophage + PBMCs
  RT activity % VC: 207.4%
Table 4, 2.5 units/mL, Rojo chronic PBMCs, Transfer PBMCs
  RT activity % VC: 183.0%
Table 4, 2.5 units/mL, control uninfected PBMCs, Macrophage + PBMCs
  RT activity % VC: 102.3%
Table 4, 2.5 units/mL, control uninfected PBMCs, Transfer PBMCs
  RT activity % VC: 47.3%
Table 4, 3.75 units/mL, Rojo chronic PBMCs, Macrophage + PBMCs
  RT activity % VC: 124.1%
Table 4, 3.75 units/mL, Rojo chronic PBMCs, Transfer PBMCs
  RT activity % VC: 126.5%
Table 4, 3.75 units/mL, control uninfected PBMCs, Macrophage + PBMCs
  RT activity % VC: 111.5%
Table 4, 3.75 units/mL, control uninfected PBMCs, Transfer PBMCs
  RT activity % VC: 34.4%
Table 4, 5 units/mL, Rojo chronic PBMCs, Macrophage + PBMCs
  RT activity % VC: 22.2%
Table 4, 5 units/mL, Rojo chronic PBMCs, Transfer PBMCs
  RT activity % VC: 24.2%
Table 4, 5 units/mL, control uninfected PBMCs, Macrophage + PBMCs
  RT activity % VC: 71.1%
Table 4, 5 units/mL, control uninfected PBMCs, Transfer PBMCs
  RT activity % VC: 18.0%
Table 4, 7.5 units/mL, Rojo chronic PBMCs, Macrophage + PBMCs
  RT activity % VC: 12.7%
Table 4, 7.5 units/mL, Rojo chronic PBMCs, Transfer PBMCs
  RT activity % VC: 21.9%
Table 4, 7.5 units/mL, control uninfected PBMCs, Macrophage + PBMCs
  RT activity % VC: 56.4%
Table 4, 7.5 units/mL, control uninfected PBMCs, Transfer PBMCs
  RT activity % VC: 26.8%
Table 4, 10 units/mL, Rojo chronic PBMCs, Macrophage + PBMCs
  RT activity % VC: 14.8%
Table 4, 10 units/mL, Rojo chronic PBMCs, Transfer PBMCs
  RT activity % VC: 21.5%
Table 4, 10 units/mL, control uninfected PBMCs, Macrophage + PBMCs
  RT activity % VC: 56.2%
Table 4, 10 units/mL, control uninfected PBMCs, Transfer PBMCs
  RT activity % VC: 21.2%
Table 4, 15 units/mL, Rojo chronic PBMCs, Macrophage + PBMCs
  RT activity % VC: 13.3%
Table 4, 15 units/mL, Rojo chronic PBMCs, Transfer PBMCs
  RT activity % VC: 21.9%
Table 4, 15 units/mL, control uninfected PBMCs, Macrophage + PBMCs
  RT activity % VC: 40.2%
Table 4, 15 units/mL, control uninfected PBMCs, Transfer PBMCs
  RT activity % VC: 20.6%
Table 4, 20 units/mL, Rojo chronic PBMCs, Macrophage + PBMCs
  RT activity % VC: 14.2%
Table 4, 20 units/mL, Rojo chronic PBMCs, Transfer PBMCs
  RT activity % VC: 13.6%
Table 4, 20 units/mL, control uninfected PBMCs, Macrophage + PBMCs
  RT activity % VC: 41.9%
Table 4, 20 units/mL, control uninfected PBMCs, Transfer PBMCs
  RT activity % VC: 33.0%
Table 4, 30 units/mL, Rojo chronic PBMCs, Macrophage + PBMCs
  RT activity % VC: 19.9%
Table 4, 30 units/mL, Rojo chronic PBMCs, Transfer PBMCs
  RT activity % VC: 18.0%
Table 4, 30 units/mL, control uninfected PBMCs, Macrophage + PBMCs
  RT activity % VC: 43.8%
Table 4, 30 units/mL, control uninfected PBMCs, Transfer PBMCs
  RT activity % VC: 24.0%
Table 5, 2.5 units/mL, Rojo chronic PBMCs, Macrophage + PBMCs
  RT activity % VC: 164.0%
Table 5, 2.5 units/mL, Rojo chronic PBMCs, Transfer PBMCs
  RT activity % VC: 106.0%
Table 5, 2.5 units/mL, control uninfected PBMCs, Transfer PBMCs
  RT activity % VC: 136.0%
Table 5, 3.75 units/mL, Rojo chronic PBMCs, Macrophage + PBMCs
  RT activity % VC: 191.7%
Table 5, 3.75 units/mL, Rojo chronic PBMCs, Transfer PBMCs
  RT activity % VC: 152.4%
Table 5, 3.75 units/mL, control uninfected PBMCs, Macrophage + PBMCs
  RT activity % VC: 108.5%
Table 5, 3.75 units/mL, control uninfected PBMCs, Transfer PBMCs
  RT activity % VC: 195.0%
Table 5, 5 units/mL, Rojo chronic PBMCs, Macrophage + PBMCs
  RT activity % VC: 253.5%
Table 5, 5 units/mL, control uninfected PBMCs, Macrophage + PBMCs
  RT activity % VC: 184.7%
Table 5, 5 units/mL, control uninfected PBMCs, Transfer PBMCs
  RT activity % VC: 380.0%
Table 5, 7.5 units/mL, Rojo chronic PBMCs, Macrophage + PBMCs
  RT activity % VC: 476.0%
Table 5, 7.5 units/mL, Rojo chronic PBMCs, Transfer PBMCs
  RT activity % VC: 792.6%
Table 5, 10 units/mL, Rojo chronic PBMCs, Transfer PBMCs
  RT activity % VC: 730.4%
Table 5, 10 units/mL, control uninfected PBMCs, Macrophage + PBMCs
  RT activity % VC: 965.0%
Table 5, 20 units/mL, Rojo chronic PBMCs, Macrophage + PBMCs
  RT activity % VC: 375.9%
Table 5, 20 units/mL, Rojo chronic PBMCs, Transfer PBMCs
  RT activity % VC: 284.2%
Table 5, 20 units/mL, control uninfected PBMCs, Macrophage + PBMCs
  RT activity % VC: 196.8%
Table 5, 20 units/mL, control uninfected PBMCs, Transfer PBMCs
  RT activity % VC: 383.0%
Table 5, 30 units/mL, Rojo chronic PBMCs, Macrophage + PBMCs
  RT activity % VC: 291.8%
Table 5, 30 units/mL, Rojo chronic PBMCs, Transfer PBMCs
  RT activity % VC: 222.3%
Table 5, 30 units/mL, control uninfected PBMCs, Macrophage + PBMCs
  RT activity % VC: 163.1%
Table 5, 30 units/mL, control uninfected PBMCs, Transfer PBMCs
  RT activity % VC: 142.7%
